Assay results from patent publication US20100210557A1, “USE OF RFRP, ALONE OR IN COMBINATION WITH NEUROKININ-B, AS A THERAPEUTIC AGENT” (priority 2007, published 2010).
No end group written: not given here.

Legend:
HCMV strain AD169 = assay: HCMV plaque formation assay in MRC-5 cells; details: for inhibition of HCMV plaque formation as compared to the virus control: 10 micrograms per ml, 7-10 days
[1] = test system: spleen cells of Ovalbumin-immunized Balb/c mice; assay: Th1/Th2 cytokine profiling assay; assay type: cell-based, mouse; details: 10 micrograms per ml; Ovalbumin restimulation 10 micrograms/ml; 72 hours
Description: The Balb/c mice (originated in 1923, it is a popular strain and is used in many different research disciplines. […] On day 50, spleens of the mice were harvested (3 weeks after last boost with Ovalbumin). […] Thereafter, additional Ovalbumin was added to the cells at 10 micrograms/ml for in vitro restimulation of the cells. 72 hours later, cell supernatants were harvested and assayed using the Becton Dickinson Mouse […] Cytokine CBA Kit. This kit can be used to measure Interleukin-2 (IL-2), Interleukin-4 (IL-4), Interleukin-5 (IL-5), Interferon-γ (IFN-γ), and Tumor Necrosis Factor-α (TNF-α) protein levels in a single sample. The kit performance has been optimized for analysis of physiologically relevant concentrations (pg/ml levels) of specific cytokine proteins in tissue culture supernatants and serum samples.

[2] = test system: hepatitis B virus (HBV) ayw strain; assay: HBV assay in HepG2-2.2.15 cells (secreted HBV DNA by TaqMan PCR); assay type: cell-based; details: 10 micrograms per ml; six days; HBV DNA in supernatant
Excerpt: HepG2-2.2.15 is a stable cell line containing the hepatitis B virus (HBV) ayw strain genome (ATCC Cat. No. CRL-11997). Antiviral compounds blocking any late step of viral replication such as transcription, translation, pregenome encapsidation, reverse transcription, particle assembly and release can be identified and characterized using this cell line. In this assay, an active compound will reduce the production of secreted HBV from cells, measured by utilizing real time quantitative PCR (TaqMan) assay to directly and accurately measure HBV DNA copies.
HepG2-2.2.15 cells were plated in 96-well microtiter plates. After 16-24 hours the confluent monolayer of HepG2-2.2.15 cells was washed and the medium was replaced with complete medium containing test peptides—10 micrograms per ml—in duplicate. […] Six days following the initial administration of the peptides, the cell culture supernatants was collected, treated with pronase and DNAse and then used in a real-time quantitative TaqMan PCR assay. The PCR-amplified HBV DNA was detected in real-time by monitoring increases in fluorescence signals that result from the exonucleolytic degradation of a quenched fluorescence probe molecule that hybridizes to the amplified HBV DNA. […] Antiviral activity was calculated from the reduction in HBV DNA levels (% virus control). […]

[3] = test system: LPS-induced TNF-alpha production in human macrophages; assay: TNF alpha production assay (ELISA); assay type: cell-based; details: 10 micrograms per ml; LPS 200 ng/ml; overnight
Description: Human Peripheral Blood Mononuclear Cells (PBMC) were obtained from normal human donors. The macrophages were prepared by adherence of PBMC to the plastic wells of the plates. […] Not stimulated macrophages served as negative background control. After overnight incubation, supernatants from the control and LPS-stimulated cultures were harvested and assayed for TNF alpha production employing a TNF alpha specific ELISA.

| Molecule | inhibition of HCMV plaque formation as compared to the virus control (HCMV strain AD169) | IFNγ spleen cells; TH1 response (% of control) [1] | IL-2 spleen cells (% of control) [1] | IL-4 spleen cells; TH2 response (% of control) [1] | IL-5 spleen cells; TH2 response (% of control) [1] | TNF-a spleen cells; TH1 response (% of control) [1] | inhibition of HBV replication as compared to the virus control infection [2] [%] | induction of the LPS-induced TNF-alpha production in human macrophages [3] [%] | antiviral activity of positive control compound (HCMV) (HCMV strain AD169; positive control) |
| --- | --- | --- | --- | --- | --- | --- | --- | --- | --- |
| Asp-Met-His-Asp-Phe-Phe-Val-Gly-Leu-Met-NH2 (DMHDFFVGLM-NH2) [Peptide 2] | did not inhibit | 126.8 % of control | 198.0 % of control | 103.5 % of control | 99.2 % of control | 151.0 % of control | 78.5 | 15.9 |  |
| Nc1nc(O)c2ncn(COC(CO)CO)c2n1 [Ganciclovir, reference compound] |  |  |  |  |  |  |  |  | expected levels of antiviral activity |
| Met-Pro-His-Ser-Phe-Ala-Asn-Leu-Pro-Leu-Arg-Phe-NH2 (MPHSFANLPLRF-NH2) [Peptide 1] | did not inhibit | 57.5 % of control | 239.7 % of control | 168.7 % of control | 99.2 % of control | 106.3 % of control | 77.8 | 21.7 |  |
